The source of these data is publication PMC13183915, “A platinum butterfly effect: small changes turn an anticancer drug into a non-toxic metalloantibiotic with in vivo efficacy” (npj Antimicrobials and Resistance, 2026).

What is called MIC is the least concentration at which growth counts as inhibited. The low end stands for greater potency, the high end for weaker potency. Broadly, the HC50 is the concentration giving 50% haemolysis. By IC50 is commonly meant the midpoint of a concentration-inhibition curve.

“And” between values parts separate entries of the source, which are not always exact repeats. Identical values can stand only once. Like-named read-outs stand apart in the source and are kept apart here.

Data set [1] concerns B. subtilis 168CA. Put plainly: DiSC3(5)-based membrane potential measurement. It counts as cell-based, Bacillus subtilis. Particulars: 3.125 µM Pt1, 25 µM Pt8. The procedure:
The membrane potential was measured according to Winkel et al. with minor modifications. B. subtilis 168CA was grown in LB containing 50 µg/mL bovine serum albumin (BSA). Cells were transferred to black 96-well polystyrene microtiter plates after reaching an OD600 of 0.3. DiSC3(5) was added to a final concentration of 1 µM, maintaining a constant concentration of 1% DMSO to avoid precipitation of the dye. After the fluorescence baseline had stabilized, antibiotic compounds were added, and measurements were continued for 30 min. Fluorescence was recorded at an excitation wavelength of 610–30 nm and an emission wavelength of 675–50 nm in a BMG Clariostar Plus plate reader.

In the next data set the test system is P. aeruginosa ATCC 27853. Put plainly: Broth microdilution MIC, P. aeruginosa ATCC 27853. The format is cell-based, Pseudomonas aeruginosa. The procedure: (§1) The data is given in supporting information (Table S5). Before starting the experiment, a single colony was picked from MHA plate, inoculated in MHBII and incubated overnight at 37 °C with shaking for 18–24 h to get the starter culture. Antibiotic susceptibility testing was conducted according to the CLSI (Clinical & Laboratory Standards Institute) guidelines using the broth microdilution assay. 10 mg/mL stock solutions of test compounds were prepared in DMSO. Bacterial cultures were inoculated in MHBII and optical density (OD) was measured at 600 nm, followed by dilution to achieve ~10^6 CFU/mL. The compounds were tested from 64 to 0.5 mg/L in two-fold serial diluted fashion with 2.5 μL of each concentration added to well of a 96-well round bottom microtiter plate. Later, 97.5 μL of bacterial suspension was added to each well containing either test compound or appropriate controls. […] The MIC is defined as the lowest concentration of the compound at which there is absence of visible growth. For each test compound, MIC determinations were carried out independently three times using duplicate samples.
A general note: Dilution methods test growth across graded concentrations, often in twofold steps.

Data set [2] has as its system methicillin-sensitive Staphylococcus aureus (MSSA), clinical isolate. Put plainly: MIC assay, MSSA clinical isolate. Particulars: MSSA clinical isolate. It counts as cell-based.
The next data set relates to S. aureus ATCC 29213. Put plainly: Post antibiotic effect (PAE). It counts as cell-based. Particulars: for Time for 1 log10 increase in bacterial cfu count: 1 h exposure. The procedure: Post antibiotic effect (PAE) was determined as follows. […] Following incubation, cultures were centrifuged and washed twice with pre-warmed MHBII to remove any traces of antibiotics. Finally, cells were resuspended in drug-free MHBII and incubated further at 37 °C. Samples were taken every 1 h, serially diluted, and plated on tryptic soy agar (TSA) for enumeration of CFU. […] CFU observed immediately after the removal of the drug, and C in a similarly treated drug-free control.

On the set-up of data set [3]: method as in PMID 34018686. Particulars: cited from earlier work.
Data set [4] concerns B. subtilis 168CA. Put plainly: MIC against B. subtilis 168CA (mode of action conditions). It counts as cell-based, Bacillus subtilis. Particulars: 16 h. The procedure: To establish a starting concentration for the OSC assay, MICs against parent strain 168CA were determined under conditions equivalent to those used for mode of action assays. MICs were determined according to the Clinical Laboratory Standardization Institute (CLSI) in a serial microdilution assay. […] Cultures were incubated for 16 h at 37 °C under constant agitation. MICs were used as basis for OSC determination. To this end, growth curves were recorded using optical density (OD) measurements. Culture volumes of 20 mL were grown until reaching an OD600 of 0.3. […] An untreated culture served as control. Growth was followed until cultures reached the stationary phase. A concentration achieving 50–70% growth inhibition in exponential phase was selected as optimal stressor concentration.

Data set [5] has as its system RpsB-GFP (B. subtilis 1049). The data set is described as follows: Localization of RpsB-GFP (translation reporter). It counts as cell-based, Bacillus subtilis. Particulars: 3.12 µM Pt1, 25 µM Pt8; 30 and 60 min. The procedure: (§2) B. subtilis strains were grown in LB containing appropriate inducer concentrations as specified in Table S10. After reaching an OD600 of 0.3, cultures were split and treated with antibiotics. Samples were withdrawn after 30 and 60 min of treatment, spotted on glass slides covered with 1% agarose films, and immediately imaged.
Figure S10: Localization of RpsB-GFP (B. subtilis 1049). Cultures were treated with 3.12 µM
(§3) (1 picture or pasted object on this page, not shown here)

A further data set concerns E. coli ATCC 25922. The data set is described as follows: Broth microdilution MIC, E. coli ATCC 25922. It counts as cell-based. The procedure: as §1
Data set [6] deals with human red blood cells (RBC). The data set is described as follows: Hemolysis assay in hRBCs. The format is cell-based. Particulars: 4 hours at 20 °C.
Another data set deals with Escherichia coli W3110. Put plainly: MIC assay, E. coli. It counts as cell-based. Particulars: Table S1, unit not given; method: starting concentration 100 μM.
The subject of data set [7] is 36th Passage S.aureus ATCC 29213 in the presence of Pt-1. The data set is described as follows: microbe, parasite or virus in culture. Particulars: strain resulting from 36 passages. The format is cell-based. The procedure:
The MICs of the passaged cultures were determined every 3 days and compared to that of wild type S. aureus ATCC 29213. MIC changes were recorded for 36 passages.

Another data set relates to HEK293T cells. It counts as cell-based, Human. The procedure: The control for the experiments was DMSO. HEK293T cells were cultivated in DMEM high glucose supplemented with 10% heat-inactivated fetal bovine serum, 100 U/mL of penicillin and streptomycin and maintained at a temperature of 37 °C with 5% CO2. Initially, 4000/well of cells were seeded into 96-well plates and incubated for 24 h before being exposed to compounds at concentrations ranging from 0.78, 50, and 100 µM. After 24 h of incubation, the compounds were added and serially diluted and incubated for 24 and 48 h at 37 °C 5% CO2, the cells were stained with alamar Blue, and the fluorescence excitation/ emission 540 nm/590 nm was measured using 96 well-plate reader. CC50 is defined as the lowest concentration of compound which leads to a 50% reduction in cell viability compared to untreated and DMSO control. Each experiment was repeated in triplicate.

In data set [8] the test system is MreB (B. subtilis MW10, Pxyl-gfp-mreB). Put plainly: MreB mobility (cell wall synthesis reporter). Particulars: 3.12 µM Pt1, 25 µM Pt8; 30 and 60 min. It counts as cell-based, Bacillus subtilis. The procedure:
as §2
Figure S7: Fluorescence overlays of B. subtilis MW10 (Pxyl-gfp-mreB). Cultures were treated […]
overlays of two consecutive images captured from the same cells in a 30-second interval.
Images were false-colored in blue and orange with overlapping signal appearing white. Distinct blue and orange spots indicate movement of MreB foci. Entirely white images indicate a stop of MreB moility (vancomycin control). Scale bar 2 µm.
as §3

Another data set relates to VRSA VRS 12. The data set is described as follows: Broth microdilution MIC, VRSA VRS 12. It counts as cell-based, S. aureus. Particulars: VRSA VRS 12. The procedure: as §1
Another data set has as its system MRSA NRS 194. The data set is described as follows: Broth microdilution MIC, MRSA NRS 194. The format is cell-based, S. aureus. Particulars: MRSA NRS 194. The procedure: as §1

Take `C1=C\CC/C=C\CC/1.[Cl][Pt][Cl]` [Pt1]: the “membrane depolarization (DiSC(3)5)” value in the data set on B. subtilis 168CA [1] is reported as “no membrane depolarization could be observed”. Moreover, the MIC with P. aeruginosa ATCC 27853 is > 64 µg/mL; in data set [2], 3.13 to 6.25 µM; against B. subtilis 168CA [4] it was 6.25 µM; in the data set with E. coli ATCC 25922, > 64 µg/mL; in the data set on VRSA VRS 12, 0.67 to 1.34 µM; with MRSA NRS 194, 0.125 – 0.25 µg/mL and 0.33–0.67 µM. Moreover, the PAE in the data set on S. aureus ATCC 29213 (1x MIC), with S. aureus ATCC 29213 (5x MIC) and in the data set with S. aureus ATCC 29213 (10x MIC) was ~ 5.5 h throughout. The “Time for 1 log10 increase in bacterial cfu count” value in the data set with S. aureus ATCC 29213 (1x MIC), with S. aureus ATCC 29213 (5x MIC) and with S. aureus ATCC 29213 (10x MIC) was ~ 8 h throughout. Moreover, the “antibacterial activity in human serum” value in [3] is “lost its antibacterial activity completely”. Also, the “localization of RpsB” value in [5] is recorded as “Neither protein showed a distinct phenotype”. Further, in [6], the concentration for 50% haemolysis (HC50) was >200 µM. In addition, the “Antibacterial activity against E. coli” value in the data set with Escherichia coli W3110 is on record as > 100. Moreover, in data set [7], the “cross-resistance to other antibiotics” value was “no cross-resistance was observed”. Moreover, the 50% inhibitory concentration (IC50) in the data set on HEK293T cells (24 h) came out at 74.1 ± 4.1 µM; in the data set on HEK293T cells (48 h), 65.3 ± 2.7 µM. The MreB mobility result in [8] is reported as “neither Pt1 nor Pt8 affected MreB mobility”.
